Source: article PMC11018627, “KdpD is a tandem serine histidine kinase that controls K^+ pump KdpFABC transcriptionally and post-translationally” (Nature Communications, 2024)

Tests used:
KdpFABC = biological target: T1, KdpFABC (Escherichia coli, UniProt P03960); details: 2 mM ATP, 1 mM KCl, 37 °C; non-phosphorylated complex purified from E. coli TK2281
T1 construct: gene kdpB

EcKdpD = biological target: T2, EcKdpD (Escherichia coli, UniProt P21865); assay: in vitro phosphorylation of KdpB, phosphoprotein gel stain; assay type: biochemical; details: phosphate donor of serine kinase; 5 mM ATP, 400 mM KCl, room temperature, 30 min, KdpFABC (KdpB D307N) as protein substrate
T2 construct: gene kdpD; full-length, from pBXC3H (His-tag), produced in E. coli TK2281, purified in DDM or SMALPs
T2 sequence (P21865 1-894): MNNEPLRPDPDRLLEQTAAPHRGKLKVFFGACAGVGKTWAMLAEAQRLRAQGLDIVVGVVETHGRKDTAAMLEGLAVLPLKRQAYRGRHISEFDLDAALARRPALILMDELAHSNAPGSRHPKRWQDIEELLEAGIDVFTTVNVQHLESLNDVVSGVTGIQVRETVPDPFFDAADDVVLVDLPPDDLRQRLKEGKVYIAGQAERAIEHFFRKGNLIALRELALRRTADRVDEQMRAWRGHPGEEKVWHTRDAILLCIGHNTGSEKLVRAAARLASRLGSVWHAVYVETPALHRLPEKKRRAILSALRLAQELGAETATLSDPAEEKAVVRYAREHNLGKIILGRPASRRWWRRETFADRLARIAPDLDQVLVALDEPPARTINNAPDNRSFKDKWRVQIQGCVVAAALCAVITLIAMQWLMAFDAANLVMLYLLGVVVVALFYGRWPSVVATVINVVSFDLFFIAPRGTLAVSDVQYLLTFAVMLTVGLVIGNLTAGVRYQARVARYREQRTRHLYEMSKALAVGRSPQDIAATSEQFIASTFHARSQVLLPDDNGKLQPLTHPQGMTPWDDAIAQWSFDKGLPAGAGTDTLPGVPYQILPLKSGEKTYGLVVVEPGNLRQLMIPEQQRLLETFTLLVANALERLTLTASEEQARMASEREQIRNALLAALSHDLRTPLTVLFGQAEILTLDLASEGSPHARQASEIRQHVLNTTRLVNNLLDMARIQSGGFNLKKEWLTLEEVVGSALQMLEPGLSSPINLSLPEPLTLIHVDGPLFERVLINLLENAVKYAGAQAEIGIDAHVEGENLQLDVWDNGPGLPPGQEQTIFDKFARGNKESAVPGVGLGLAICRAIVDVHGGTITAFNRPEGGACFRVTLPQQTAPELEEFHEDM

DgKdpD [1] = biological target: T3, DgKdpD (Deinococcus geothermalis, UniProt Q1J2K3); assay: as above; assay type: biochemical; details: phosphate donor of serine kinase; 5 mM ATP, 1 mM c-di-AMP, room temperature, 30 min, E. coli KdpFABC (KdpB D307N) as protein substrate
T3 construct: gene Dgeo_2852; short KdpD/Usp domain version, full chain; expressed in E. coli TK2281 from pBXC3H; His-tag removed with 3C protease on column

KdpDNTD = biological target: T4, KdpDNTD (Escherichia coli, UniProt P21865); assay: as above; assay type: biochemical; details: phosphate donor of serine kinase; 5 mM ATP, 400 mM KCl, room temperature, 30 min, KdpFABC (KdpB D307N) as protein substrate; no ATPase activity alone
T4 construct: gene kdpD

DgKdpD [2] = biological target: T3, DgKdpD; assay: in vitro phosphorylation of E. coli KdpB, phosphoprotein gel stain; assay type: biochemical; details: activator; 1 mM c-di-AMP, 5 mM ATP, E. coli KdpFABC (KdpB D307N) as protein substrate, room temperature, 30 min

T3 sequence (Q1J2K3 entry or part of it): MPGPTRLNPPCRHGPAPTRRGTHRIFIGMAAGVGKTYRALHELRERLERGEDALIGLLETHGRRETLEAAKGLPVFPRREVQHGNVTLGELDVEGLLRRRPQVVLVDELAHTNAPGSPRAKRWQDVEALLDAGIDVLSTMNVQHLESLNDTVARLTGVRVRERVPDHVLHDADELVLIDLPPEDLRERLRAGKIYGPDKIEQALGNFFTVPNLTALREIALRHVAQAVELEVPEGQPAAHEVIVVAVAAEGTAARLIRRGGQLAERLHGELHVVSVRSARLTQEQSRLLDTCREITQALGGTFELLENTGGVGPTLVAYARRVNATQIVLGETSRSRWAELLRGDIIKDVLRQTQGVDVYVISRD
T1 sequence (P03959 whole entry): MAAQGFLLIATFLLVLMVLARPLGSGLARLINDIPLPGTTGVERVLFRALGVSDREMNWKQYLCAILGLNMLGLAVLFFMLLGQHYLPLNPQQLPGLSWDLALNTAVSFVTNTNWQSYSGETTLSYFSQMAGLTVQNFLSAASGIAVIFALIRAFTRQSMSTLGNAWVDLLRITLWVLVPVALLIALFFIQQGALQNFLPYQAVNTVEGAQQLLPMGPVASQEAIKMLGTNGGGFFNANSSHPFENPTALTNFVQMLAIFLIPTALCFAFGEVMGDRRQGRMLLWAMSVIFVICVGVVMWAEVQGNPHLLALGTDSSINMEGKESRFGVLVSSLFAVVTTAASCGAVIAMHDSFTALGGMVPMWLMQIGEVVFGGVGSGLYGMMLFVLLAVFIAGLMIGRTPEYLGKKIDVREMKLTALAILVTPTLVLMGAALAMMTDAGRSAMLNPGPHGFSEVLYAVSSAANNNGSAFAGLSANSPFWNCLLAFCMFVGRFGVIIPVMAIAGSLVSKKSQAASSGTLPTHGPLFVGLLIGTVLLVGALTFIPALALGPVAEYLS
T1 sequence (P36937 whole entry, further chain): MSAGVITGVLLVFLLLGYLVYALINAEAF
T1 sequence (P03961 whole entry, further chain): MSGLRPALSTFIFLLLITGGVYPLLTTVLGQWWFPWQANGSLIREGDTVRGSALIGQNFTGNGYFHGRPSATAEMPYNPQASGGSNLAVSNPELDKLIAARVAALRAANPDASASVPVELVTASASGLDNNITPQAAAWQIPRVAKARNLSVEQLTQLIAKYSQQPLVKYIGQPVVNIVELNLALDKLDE
T1 sequence (P03960 whole entry): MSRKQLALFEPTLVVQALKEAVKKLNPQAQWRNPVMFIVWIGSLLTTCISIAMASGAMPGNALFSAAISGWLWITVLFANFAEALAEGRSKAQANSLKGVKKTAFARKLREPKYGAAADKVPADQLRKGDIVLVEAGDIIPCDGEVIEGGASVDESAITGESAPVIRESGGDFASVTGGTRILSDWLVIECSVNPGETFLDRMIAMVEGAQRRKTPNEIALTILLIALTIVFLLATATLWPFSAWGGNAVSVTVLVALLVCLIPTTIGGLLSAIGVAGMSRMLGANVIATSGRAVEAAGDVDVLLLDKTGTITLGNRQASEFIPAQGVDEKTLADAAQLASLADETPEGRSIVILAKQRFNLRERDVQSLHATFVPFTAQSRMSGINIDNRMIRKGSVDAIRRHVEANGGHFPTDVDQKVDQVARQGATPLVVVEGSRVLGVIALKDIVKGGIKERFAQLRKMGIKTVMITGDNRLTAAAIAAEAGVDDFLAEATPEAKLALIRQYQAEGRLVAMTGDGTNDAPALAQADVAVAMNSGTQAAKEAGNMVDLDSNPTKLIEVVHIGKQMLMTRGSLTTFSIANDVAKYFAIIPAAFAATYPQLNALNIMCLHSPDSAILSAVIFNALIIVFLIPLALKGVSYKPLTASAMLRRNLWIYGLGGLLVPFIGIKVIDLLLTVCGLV

SMILES	malachite green ATPase assay (KdpFABC)	in vitro phosphorylation of KdpB, phosphoprotein gel stain (EcKdpD)	in vitro phosphorylation of KdpB, phosphoprotein gel stain (DgKdpD [1])	in vitro phosphorylation of KdpB, phosphoprotein gel stain (KdpDNTD)	stimulation of ASK activity at 1 mM (DgKdpD [2])
Nc1ncnc2c1ncn2[C@@H]1O[C@H](COP(=O)(O)OP(=O)(O)OP(=O)(O)O)[C@@H](O)[C@H]1O [ATP]	KdpFABC produced under these conditions showed a high ATPase activity	Upon incubation with full-length KdpD, the phosphorylation was fully restored	DgKdpD can phosphorylate E. coli KdpB	This truncated construct remained able to phosphorylate KdpB	
Nc1ncnc2c1ncn2[C@@H]1O[C@@H]2COP(=O)(O)O[C@H]3[C@@H](O)[C@H](n4cnc5c(N)ncnc54)O[C@@H]3COP(=O)(O)O[C@H]2[C@H]1O [c-di-AMP]					phosphorylation of E. coli KdpB by DgKdpD was stimulated in the presence of c-di-AMP
